Assays:
[1] = test system: A549; experiment: cells; settings: Homo sapiens, A549, 24 h
Description: Antiproliferative activity against human A549 cells assessed as reduction in cell viability incubated for 24 hrs by MTT assay

[2] = test system: MDA-MB-468; experiment: cells; settings: Homo sapiens, MDA-MB-468, 24 h
Description: Antiproliferative activity against human MDA-MB-468 cells assessed as reduction in cell viability incubated for 24 hrs by MTT assay

[3] = test system: MDA-MB-231; experiment: cells; settings: Homo sapiens, MDA-MB-231, 24 h
Description: Antiproliferative activity against human MDA-MB-231 cells assessed as reduction in cell viability incubated for 24 hrs by MTT assay

[4] = test system: MDA-MB-231; experiment: Induction of autophagy in human MDA-MB-231 cells assessed as MDC positive ratio at 1 uM incubated for 6 hrs by MDC staining based flow cytometry analysis; assay type: functional
[5] = biological target: Serine/threonine-protein kinase mTOR (Homo sapiens, UniProt P42345); experiment: Inhibition of mTOR (unknown origin)

Row | IC50 [1] [µM] | IC50 [2] [µM] | IC50 [3] [µM] | IC50 [5] [µM] | SMILES | Activity [4] [%]
1 | 13.7 | 10.2 | 9.21 | 2.45 | C/C(=N\NC(=O)c1cccc(Br)c1)c1ccc(C(=O)Nc2cc(N3CCOCC3)ccn2)cc1 | 20.99
2 | 9.07 | 9.91 | 9.3 | 4.76 | C/C(=N\NC(=O)c1ccc(C)c(Br)c1)c1ccc(C(F)(F)F)cc1 | 18.65
3 | 13 | 8.3 | 13.1 | 4.79 | C/C(=N\NC(=O)c1cccc(I)c1)c1ccc(N)cc1 | 15.27
4 | 15.4 | 9.24 | 10.8 | 4.22 | C/C(=N\NC(=O)c1cccc(F)c1)c1ccc(O)cc1O | 15.04
5 | 10.5 | 8.32 | 9.24 | 1.29 | C/C(=N\NC(=O)c1cccc(Br)c1)c1ccc(C(=O)Nc2cc[nH]n2)cc1 | 19.78
6 | 11.5 | 11.9 | 10.3 | 12.6 | O=C(Nc1ccc(C(F)(F)F)cc1)Nc1cccc(F)c1 | 7.22
7 | 23.5 | 23.7 | 22.8 | 23.7 | O=C(Nc1ccc(C(F)(F)F)cc1)Nc1nc2ccccc2[nH]1 | 8.2
8 | 30.7 | 37.2 | 35.8 |  | CO[C@H]1C[C@@H]2CC[C@@H](C)[C@@](O)(O2)C(=O)C(=O)N2CCCC[C@H]2C(=O)O[C@H]([C@H](C)C[C@@H]2CC[C@@H](O)[C@H](OC)C2)CC(=O)[C@H](C)/C=C(\C)[C@@H](O)[C@@H](OC)C(=O)[C@H](C)C[C@H](C)/C=C/C=C/C=C/1C [SIROLIMUS] | 31.03
9 | 9.46 | 8.76 | 8.3 | 1.98 | C/C(=N\NC(=O)c1ccc(C)c(I)c1)c1ccc(C(F)(F)F)cc1 | 14.89
10 | 12.5 | 17.5 | 13.8 | 17.6 | O=C(NCc1cc(C(F)(F)F)cc(C(F)(F)F)c1)Nc1cccc(F)c1 | 8.77
11 | 9.93 | 9.54 | 8.46 | 5.08 | C/C(=N\NC(=O)c1ccc(C)c(I)c1)c1ccc(N)cc1 | 14.28
12 | 26.4 | 24.3 | 20.8 | 15.8 | O=C(NCc1cccc(Br)c1)Nc1ccc(C(F)(F)F)cc1 | 9.1
13 | 11.2 | 8.17 | 8.11 | 4.84 | C/C(=N\NC(=O)c1cccc(Br)c1)c1ccc(C(=O)NN2CCOCC2)cc1 | 17.2
14 | 27.5 | 24.1 | 29 | 3.99 | O=C(Nc1nc2ccccc2[nH]1)c1ccc(OC(F)(F)F)cc1 | 11.22
15 | 34 | 33.7 | 41.7 | > 30 | Cc1ccc(C(=O)NCCc2ccc(O)cc2)cc1Br | 11.23
16 | 31.2 | 25.9 | 19.5 | 27.1 | O=C(NCc1ccc(O)cc1)Nc1cccc(Cl)c1 | 9.22
17 | 12 | 9.55 | 8.4 | 4.32 | C/C(=N\NC(=O)c1ccc(C)c(F)c1)c1ccc(N)cc1 | 15.44
18 | 33 | 31.9 | 34.1 | 16.9 | CC(NC(=O)Nc1cccc(F)c1)c1ccccc1 (centres undefined) | 8.29
19 | 9.84 | 12.1 | 12.5 | 1.17 | C/C(=N\NC(=O)c1cccc(I)c1)c1ccncc1 | 15.79
20 | 10.1 | 8.46 | 6.71 | 2.01 | C/C(=N\NC(=O)c1ccc(C)c(Br)c1)c1ccc(O)cc1 | 19.27

Row | IC50 [1] [µM] | IC50 [2] [µM] | IC50 [3] [µM] | IC50 [5] [µM] | SMILES | Activity [4] [%]
21 | 11.8 | 10.9 | 17.6 | 2.29 | CO[C@H]1C[C@@H]2CC[C@@H](C)[C@@](O)(O2)C(=O)C(=O)N2CCCC[C@H]2C(=O)O[C@H]([C@H](C)C[C@@H]2CC[C@@H](OC(=O)C(C)(CO)CO)[C@H](OC)C2)CC(=O)[C@H](C)/C=C(\C)[C@@H](O)[C@@H](OC)C(=O)[C@H](C)C[C@H](C)/C=C/C=C/C=C/1C [TEMSIROLIMUS] | 15.33
22 | 24.8 | 23.7 | 22.6 | > 30 | CC(NC(=O)Nc1cccc(Cl)c1)c1ccccc1 (centres undefined) | 9.25
23 | 19.8 | 24.1 | 19 | 4.93 | O=C(Nc1cccc(F)c1)Nc1nc2ccccc2[nH]1 | 8.32
24 | 36.7 | 17.5 | 22.9 | 10.3 | O=C(NCc1ccc(O)cc1)Nc1ccc(C(F)(F)F)cc1 | 8.29
25 | 31.6 | 27.5 | 38 | 17.9 | Cc1ccc(C(=O)Nc2ccc3ccccc3n2)cc1Br | 13.81
26 | 13.3 | 17.9 | 16.9 | 20.4 | O=C(NCc1cc(C(F)(F)F)cc(C(F)(F)F)c1)Nc1ccc(C(F)(F)F)cc1 | 9.62
27 | 33.8 | 41.9 | 33.4 | > 30 | Cc1ccc(C(=O)NCc2ccc(O)cc2)cc1Br | 12.73
28 | 26.4 | 25.9 | 32.1 | 15.3 | Cc1ccc(C(=O)Nc2cc3ccccc3cn2)cc1Br | 11.8
29 | 13.9 | 12.1 | 13.2 | 3.83 | C/C(=N\NC(=O)c1ccc(C)c(F)c1)c1ccc(C(=O)Nc2cc(N3CCOCC3)ccn2)cc1 | 19.22
30 | 7.81 | 6.06 | 5.03 | 0.83 | C/C(=N\NC(=O)c1cccc(F)c1)c1ccc(C(=O)Nc2nc3ccccc3[nH]2)cc1 | 22.34
31 | 12.4 | 8.69 | 11 | 5.24 | C/C(=N\NC(=O)c1ccc(C)c(Br)c1)c1ccncc1 | 15.26
32 | 7.78 | 5.51 | 7.5 | 0.69 | C/C(=N\NC(=O)c1cccc(Br)c1)c1ccc(C(=O)O)cc1 | 19.83
33 | 13 | 13.1 | 10.9 | 6.21 | C/C(=N\NC(=O)c1cccc(Br)c1)c1ccc(N)cc1 | 15.81
34 | 28.8 | 21.9 | 21.2 | 10.1 | CN(Cc1ccccc1)C(=O)Nc1ccc(C(F)(F)F)cc1 | 7.34
35 | 10.3 | 11 | 9.13 | 8.2 | C/C(=N\NC(=O)c1cccc(Br)c1)c1cc(O)cc(O)c1 | 16.33
36 | 11.3 | 10.3 | 9.08 | 1.66 | C/C(=N\NC(=O)c1ccc(C)c(I)c1)c1ccncc1 | 16.25
37 | 8.91 | 6.37 | 8.96 | 0.82 | C/C(=N\NC(=O)c1cccc(I)c1)c1ccc(C(=O)O)cc1 | 17.2
38 | 13.6 | 12.1 | 9.91 | 7.3 | C/C(=N\NC(=O)c1ccc(C)c(Br)c1)c1ccc(N)cc1 | 18.9
39 | 22.3 | 34.1 | 27.7 | > 30 | O=C(NCc1ccc(O)cc1)Nc1cccc(F)c1 | 8.31
